Experimental data as given in patent US8063071B2 (GlaxoSmithKline, LLC, priority 2007, dated 2011).

Legend:
[1] = target: T1, Recombinant human IKKβ (residues 1-737) (Homo sapiens, UniProt O14920); experiment: IKK2 assay (TR-FRET); format: biochemical; conditions: ATP 1 μM final, read-out: pIC50 against IKK2 (converted)
T1 construct: Recombinant human IKKβ (residues 1-737); GST (C); made in house
T1 sequence (O14920 1-737): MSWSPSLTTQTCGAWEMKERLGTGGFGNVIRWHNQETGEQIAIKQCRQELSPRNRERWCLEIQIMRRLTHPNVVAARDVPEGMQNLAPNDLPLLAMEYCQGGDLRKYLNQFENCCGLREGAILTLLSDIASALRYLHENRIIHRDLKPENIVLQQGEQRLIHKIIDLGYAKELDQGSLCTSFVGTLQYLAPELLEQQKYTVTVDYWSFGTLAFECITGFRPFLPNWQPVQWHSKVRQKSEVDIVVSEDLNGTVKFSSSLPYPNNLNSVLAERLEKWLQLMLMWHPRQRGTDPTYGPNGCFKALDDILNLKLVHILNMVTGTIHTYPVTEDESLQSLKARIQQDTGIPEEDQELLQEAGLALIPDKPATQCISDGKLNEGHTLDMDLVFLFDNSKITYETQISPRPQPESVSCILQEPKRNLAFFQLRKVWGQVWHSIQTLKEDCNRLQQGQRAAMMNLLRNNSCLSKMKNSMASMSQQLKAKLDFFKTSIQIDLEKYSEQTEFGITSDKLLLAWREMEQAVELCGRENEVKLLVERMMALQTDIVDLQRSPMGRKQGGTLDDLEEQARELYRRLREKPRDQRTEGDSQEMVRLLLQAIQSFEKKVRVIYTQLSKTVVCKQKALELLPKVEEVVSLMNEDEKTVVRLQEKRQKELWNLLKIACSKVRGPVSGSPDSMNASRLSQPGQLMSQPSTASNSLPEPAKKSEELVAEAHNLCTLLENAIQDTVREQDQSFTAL
Procedure, shortened: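 TR-FRET readout (665 nm over 620 nm Eu reference) of GST-IB Ser32/36 phosphorylation after 60 min detection. Reaction: 1 μM ATP, 25 nM substrate, 0.5-5 nM GST-fused IKKβ 1-737 from baculovirus, pH 7.4 HEPES buffer, 1.7% DMSO, 15 min room temperature, EDTA-terminated.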

[2] = tested on: human monocyte stimulated cytokine production (TNF-α); experiment: Monocyte assay (LPS-stimulated TNF-α production); format: cell-based; conditions: 24 h, 200 ng/mL LPS, TNF-α by ELISA
Procedure, shortened: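 TNF-α release was measured by ELISA after 24 hrs at 37 C. Cells were stimulated with 200 ng/mL E. coli LPS, with compound added 30 minutes beforehand (0.1% DMSO vehicle). Cells were Ficoll/MACS-isolated CD14+ human monocytes adhered at 1×10^6 cells/mL, and viability was checked by trypan blue.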

Row | Compound | IC50 [1] [µM] | IC50 [2] [µM]
1 | CCS(=O)(=O)N1CCC(c2c[nH]c3c(C(N)=O)cc(-c4cccc(CNS(=O)(=O)c5ccccc5Cl)c4)cc23)CC1 [Example 374, 5-[3-({[(2-chlorophenyl)sulfonyl]amino}methyl)phenyl]-3-[1-(ethylsulfonyl)-4-piperidinyl]-1H-indole-7-carboxamide] | ≤ 10 | > 1
2 | CCS(=O)(=O)N1CCC(c2c[nH]c3c(C(N)=O)cc(-c4cccc(CNS(=O)(=O)c5cc(Cl)sc5Cl)c4)cc23)CC1 [Example 375, 5-[3-({[(2,5-dichloro-3-thienyl)sulfonyl]amino}methyl)phenyl]-3-[1-(ethylsulfonyl)-4-piperidinyl]-1H-indole-7-carboxamide] | ≤ 10 | > 1
3 | CCS(=O)(=O)N1CCC(c2c[nH]c3c(C(N)=O)cc(-c4cccc(CNS(=O)(=O)c5c(C)cccc5Cl)c4)cc23)CC1 [Example 376, 5-[3-({[(2-chloro-6-methylphenyl)sulfonyl]amino}methyl)phenyl]-3-[1-(ethylsulfonyl)-4-piperidinyl]-1H-indole-7-carboxamide] | ≤ 10 | ≤ 1.5
4 | CCS(=O)(=O)N1CCC(c2c[nH]c3c(C(N)=O)cc(-c4cccc(CNS(=O)(=O)c5cc(F)ccc5C)c4)cc23)CC1 [Example 377, 3-[1-(ethylsulfonyl)-4-piperidinyl]-5-[3-({[(5-fluoro-2-methylphenyl)sulfonyl]amino}methyl)phenyl]-1H-indole-7-carboxamide] | ≤ 10 | > 1
5 | CCS(=O)(=O)N1CCC(c2c[nH]c3c(C(N)=O)cc(-c4cccc(CNS(=O)(=O)c5cn(C)c(C)n5)c4)cc23)CC1 [Example 378, 5-[3-({[(1,2-dimethyl-1H-imidazol-4-yl)sulfonyl]amino}methyl)phenyl]-3-[1-(ethylsulfonyl)-4-piperidinyl]-1H-indole-7-carboxamide] | ≤ 10 | > 1
6 | CCS(=O)(=O)N1CCC(c2c[nH]c3c(C(N)=O)cc(-c4cccc(CNS(=O)(=O)c5ccccc5)c4)cc23)CC1 [Example 379, 3-[1-(ethylsulfonyl)-4-piperidinyl]-5-(3-{[(phenylsulfonyl)amino]methyl}phenyl)-1H-indole-7-carboxamide] | ≤ 10 | > 1
7 | CCS(=O)(=O)N1CCC(c2c[nH]c3c(C(N)=O)cc(-c4cccc(CNS(=O)(=O)c5ccc(F)cc5)c4)cc23)CC1 [Example 380, 3-[1-(ethylsulfonyl)-4-piperidinyl]-5-[3-({[(4-fluorophenyl)sulfonyl]amino}methyl)phenyl]-1H-indole-7-carboxamide] | ≤ 10 | ≤ 1.5
8 | CCc1cc(Br)ccc1S(=O)(=O)NCc1cccc(-c2cc(C(N)=O)c3[nH]cc(C4CCN(S(=O)(=O)CC)CC4)c3c2)c1 [Example 381, 5-[3-({[(4-bromo-2-ethylphenyl)sulfonyl]amino}methyl)phenyl]-3-[1-(ethylsulfonyl)-4-piperidinyl]-1H-indole-7-carboxamide] | ≤ 10 | > 1
9 | CCS(=O)(=O)N1CCC(c2c[nH]c3c(C(N)=O)cc(-c4cccc(CNS(=O)(=O)c5ccc(C(C)(C)C)cc5)c4)cc23)CC1 [Example 383, 5-{3-[({[4-(1,1-dimethylethyl)phenyl]sulfonyl}amino)methyl]phenyl}-3-[1-(ethylsulfonyl)-4-piperidinyl]-1H-indole-7-carboxamide] | ≤ 10 | ≤ 1.5
10 | CCS(=O)(=O)N1CCC(c2c[nH]c3c(C(N)=O)cc(-c4cccc(CNS(=O)(=O)c5cccc6nonc56)c4)cc23)CC1 [Example 385, 5-(3-{[(2,1,3-benzoxadiazol-4-ylsulfonyl)amino]methyl}phenyl)-3-[1-(ethylsulfonyl)-4-piperidinyl]-1H-indole-7-carboxamide] | ≤ 10 | > 1
11 | CCS(=O)(=O)N1CCC(c2c[nH]c3c(C(N)=O)cc(-c4ccc(N5CCN(C)CC5=O)cc4)cc23)CC1 [Example 388, 3-[1-(ethylsulfonyl)-4-piperidinyl]-5-[4-(4-methyl-2-oxo-1-piperazinyl)phenyl]-1H-indole-7-carboxamide] | ≤ 10 | > 1
